Data taken from patent US20240115654A1, “INTRAVENOUS ADMINISTRATION OF ENGINEERED ANTIMICROBIAL AMPHIPHILIC PEPTIDES” (priority 2021, published 2024).
Like-named read-outs stand apart in the source and are kept apart here. Peptide text beside a SMILES is read from it.

Conditions: human, in vivo; for Vd: mean apparent volume of distribution (Vz)
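Also: phase 1 study in human subjects given one IV dose of the peptide, enrolled in sequential ascending-dose cohorts and randomized to peptide or placebo.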

Description: Administration was a single 1-hour infusion.
Subjects were enrolled in sequential cohorts of peptide ascending dose levels and randomly assigned to receive a single IV administration of either peptide or placebo over 1 to 2 hours. […] In addition, the infusion volume was adjusted for Cohort 4 to maintain drug concentrations in line with Cohort 2
Blood samples for PK assessment were collected at pre-dose, at the midpoint of infusion, within 1 minute after the end-of-infusion and at 0.5, 1, 2, 4, 6, 8, 12, 20, 24, 36 and 48 hours after the end-of-infusion.
The pharmaceutical composition was stored at 2° C. to 8° C. for up to 14 days and then 15° C. to 25° C. for up to 48 hours for dosing.
Subjects were enrolled in sequential cohorts of peptide ascending dose levels and randomly assigned to receive a single IV administration of either peptide or placebo over 1 to 2 hours.

## CC(C)[C@H](NC(=O)[C@H](Cc1c[nH]c2ccccc12)NC(=O)[C@H](CCCNC(=N)N)NC(=O)[C@H](CCCNC(=N)N)NC(=O)[C@@H](NC(=O)[C@@H](NC(=O)[C@H](CCCNC(=N)N)NC(=O)[C@@H](NC(=O)[C@@H](NC(=O)[C@H](CCCNC(=N)N)NC(=O)[C@H](CCCNC(=N)N)NC(=O)[C@H](Cc1c[nH]c2ccccc12)NC(=O)[C@@H](NC(=O)[C@H](CCCNC(=N)N)NC(=O)[C@H](CCCNC(=N)N)NC(=O)[C@@H](NC(=O)[C@H](CCCNC(=N)N)NC(=O)[C@H](CCCNC(=N)N)NC(=O)[C@@H](NC(=O)[C@H](Cc1c[nH]c2ccccc12)NC(=O)[C@H](CCCNC(=N)N)NC(=O)[C@@H](N)CCCNC(=N)N)C(C)C)C(C)C)C(C)C)C(C)C)C(C)C)C(C)C)C(C)C)C(=O)N[C@@H](CCCNC(=N)N)C(=O)N[C@@H](CCCNC(=N)N)C(N)=O [SEQ ID NO: 1] (H-RRWVRRVRRVWRRVVRVVRRWVRR-NH2)
iv, Cohort 4, 0.5 mg/kg IV infusion 2 hours, Median
  Cmax: 1970 ng/mL
iv, Cohort 4, 0.5 mg/kg IV, infusion 2 hours, cohort Geometric Mean
  Cmax: 1770 ng/mL
iv, Cohort 4, 0.5 mg/kg IV, infusion 2 hours, cohort Mean
  Cmax: 1830 ng/mL
iv, Cohort 4, 0.5 mg/kg IV, infusion 2 hours, cohort Median
  Cmax: 1970 ng/mL
iv, Cohort 5, 1 mg/kg IV infusion 4 hours, Geometric Mean
  Cmax: 2580 ng/mL
iv, Cohort 5, 1 mg/kg IV infusion 4 hours, Mean
  Cmax: 2650 ng/mL
iv, Cohort 5, 1 mg/kg IV infusion 4 hours, Median
  Cmax: 2510 ng/mL
iv, Cohort 5, 1 mg/kg IV infusion 4 hours, individual subject
  Cmax: 4000 ng/mL
iv, Tmax, Cohort 1, 0.05 mg/kg IV infusion, Geometric Mean
  Tmax: 1 h
iv, Tmax, Cohort 1, 0.05 mg/kg IV infusion, Mean
  Tmax: 1 h
iv, Tmax, Cohort 1, 0.05 mg/kg IV infusion, Median
  Tmax: 1 h
iv, Tmax, Cohort 1, 0.05 mg/kg IV infusion, cohort Geometric Mean
  Tmax: 1 h
iv, Tmax, Cohort 1, 0.05 mg/kg IV infusion, cohort Mean
  Tmax: 1 h
iv, Tmax, Cohort 1, 0.05 mg/kg IV infusion, cohort Median
  Tmax: 1 h
iv, Tmax, Cohort 1, 0.05 mg/kg IV infusion, individual subject
  Tmax: 1 h
iv, Tmax, Cohort 1, 0.05 mg/kg IV infusion, individual subjects
  Tmax: 1 h
iv, Tmax, Cohort 2, […] IV infusion, Geometric Mean
  Tmax: 1 h
iv, Tmax, Cohort 2, […] IV infusion, Mean
  Tmax: 1 h
iv, Tmax, Cohort 2, […] IV infusion, Median
  Tmax: 1 h
iv, Tmax, Cohort 2, […] IV infusion, cohort Geometric Mean
  Tmax: 1 h
iv, Tmax, Cohort 2, […] IV infusion, cohort Mean
  Tmax: 1 h
iv, Tmax, Cohort 2, […] IV infusion, cohort Median
  Tmax: 1 h
iv, Tmax, Cohort 2, […] IV infusion, individual subject
  Tmax: 1 h
iv, Tmax, Cohort 2, […] IV infusion, individual subjects
  Tmax: 1 h
iv, Tmax, Cohort 3, […] IV infusion, Geometric Mean
  Tmax: 0.66 h
iv, Tmax, Cohort 3, […] IV infusion, Mean
  Tmax: 0.71 h
iv, Tmax, Cohort 3, […] IV infusion, Median
  Tmax: 0.5 h
iv, Tmax, Cohort 3, […] IV infusion, cohort Geometric Mean
  Tmax: 0.66 h
iv, Tmax, Cohort 3, […] IV infusion, cohort Mean
  Tmax: 0.71 h
iv, Tmax, Cohort 3, […] IV infusion, cohort Median
  Tmax: 0.5 h
iv, Tmax, Cohort 3, […] IV infusion, individual subject
  Tmax: 1 h
iv, Tmax, Cohort 3, […] IV infusion, individual subjects
  Tmax: 1 h
iv, Tmax, Cohort 3b, […] IV infusion 2 hours, Geometric Mean
  Tmax: 2 h
iv, Tmax, Cohort 3b, […] IV infusion 2 hours, Mean
  Tmax: 2 h
iv, Tmax, Cohort 3b, […] IV infusion 2 hours, Median
  Tmax: 2 h
iv, Tmax, Cohort 3b, […] IV infusion 2 hours, individual subject
  Tmax: 2 h
iv, Tmax, Cohort 3b, infusion 2 hours, cohort Geometric Mean
  Tmax: 2 h
iv, Tmax, Cohort 3b, infusion 2 hours, cohort Mean
  Tmax: 2 h
iv, Tmax, Cohort 3b, infusion 2 hours, cohort Median
  Tmax: 2 h
iv, Tmax, Cohort 3b, infusion 2 hours, individual subjects
  Tmax: 2 h
iv, Tmax, Cohort 4, 0.5 mg/kg IV infusion 2 hours, Geometric Mean
  Tmax: 2 h
iv, Tmax, Cohort 4, 0.5 mg/kg IV infusion 2 hours, Mean
  Tmax: 2 h
iv, Tmax, Cohort 4, 0.5 mg/kg IV infusion 2 hours, Median
  Tmax: 2 h
iv, Tmax, Cohort 4, 0.5 mg/kg IV infusion 2 hours, individual subject
  Tmax: 2 h
iv, Tmax, Cohort 4, 0.5 mg/kg IV, infusion 2 hours, cohort Geometric Mean
  Tmax: 2 h
iv, Tmax, Cohort 4, 0.5 mg/kg IV, infusion 2 hours, cohort Mean
  Tmax: 2 h
iv, Tmax, Cohort 4, 0.5 mg/kg IV, infusion 2 hours, cohort Median
  Tmax: 2 h
iv, Tmax, Cohort 4, 0.5 mg/kg IV, infusion 2 hours, individual subjects
  Tmax: 2 h
iv, Tmax, Cohort 5, 1 mg/kg IV infusion 4 hours, Geometric Mean
  Tmax: 4 h
iv, Tmax, Cohort 5, 1 mg/kg IV infusion 4 hours, Mean
  Tmax: 4 h
iv, Tmax, Cohort 5, 1 mg/kg IV infusion 4 hours, Median
  Tmax: 4 h
iv, Tmax, Cohort 5, 1 mg/kg IV infusion 4 hours, individual subject
  Tmax: 4 h
iv, […], t1/2, […] IV 1-hr infusion
  half-life: 10.5 h
iv, […], t1/2, […] IV 1-hr infusion (only 3 participants)
  half-life: 19.9 h
iv, […], t1/2, […] IV 2-hr infusion
  half-life: 13.2 h
iv, median Tmax, 0.05 and […] doses, 1-hour IV infusion (Cohorts 1, 2)
  Tmax: 1.02 h
iv, median Tmax, 0.25 and 0.5 mg/kg doses, 2-hour IV infusion (Cohorts 3b, 4)
  Tmax: 2.02 h
iv, t1/2, Cohort 1, 0.05 mg/kg IV infusion, Geometric Mean
  half-life: 7.33 h
iv, t1/2, Cohort 1, 0.05 mg/kg IV infusion, Mean
  half-life: 7.36 h
iv, t1/2, Cohort 1, 0.05 mg/kg IV infusion, Median
  half-life: 7.29 h
iv, t1/2, Cohort 1, 0.05 mg/kg IV infusion, cohort Geometric Mean
  half-life: 7.33 h
iv, t1/2, Cohort 1, 0.05 mg/kg IV infusion, cohort Mean
  half-life: 7.36 h
iv, t1/2, Cohort 1, 0.05 mg/kg IV infusion, cohort Median
  half-life: 7.29 h
iv, t1/2, Cohort 1, 0.05 mg/kg IV infusion, individual subject
  half-life: 6.62 h
iv, t1/2, Cohort 1, 0.05 mg/kg IV infusion, individual subjects
  half-life: 6.62 h
iv, t1/2, Cohort 2, […] IV infusion, Geometric Mean
  half-life: 10.1 h
iv, t1/2, Cohort 2, […] IV infusion, Mean
  half-life: 10.5 h
iv, t1/2, Cohort 2, […] IV infusion, Median
  half-life: 9.2 h
iv, t1/2, Cohort 2, […] IV infusion, cohort Geometric Mean
  half-life: 10.1 h
iv, t1/2, Cohort 2, […] IV infusion, cohort Mean
  half-life: 10.5 h
iv, t1/2, Cohort 2, […] IV infusion, cohort Median
  half-life: 9.2 h
iv, t1/2, Cohort 3, […] IV infusion, Geometric Mean
  half-life: 13.6 h
iv, t1/2, Cohort 3, […] IV infusion, Mean
  half-life: 15.2 h
iv, t1/2, Cohort 3, […] IV infusion, Median
  half-life: 19 h
iv, t1/2, Cohort 3, […] IV infusion, cohort Geometric Mean
  half-life: 13.6 h
iv, t1/2, Cohort 3, […] IV infusion, cohort Mean
  half-life: 15.2 h
iv, t1/2, Cohort 3, […] IV infusion, cohort Median
  half-life: 19 h
iv, t1/2, Cohort 3b, […] IV infusion 2 hours, Geometric Mean
  half-life: 12.8 h
iv, t1/2, Cohort 3b, […] IV infusion 2 hours, Mean
  half-life: 13.1 h
iv, t1/2, Cohort 3b, […] IV infusion 2 hours, Median
  half-life: 13.1 h
iv, t1/2, Cohort 3b, […] IV infusion 2 hours, individual subject
  half-life: 17.5 h
iv, t1/2, Cohort 3b, infusion 2 hours, cohort Geometric Mean
  half-life: 12.8 h
iv, t1/2, Cohort 3b, infusion 2 hours, cohort Mean
  half-life: 13.1 h
iv, t1/2, Cohort 3b, infusion 2 hours, cohort Median
  half-life: 13.1 h
iv, t1/2, Cohort 3b, infusion 2 hours, individual subjects
  half-life: 17.5 h
iv, t1/2, Cohort 4, 0.5 mg/kg IV infusion 2 hours, Geometric Mean
  half-life: 15.7 h
iv, t1/2, Cohort 4, 0.5 mg/kg IV infusion 2 hours, Mean
  half-life: 16.2 h
iv, t1/2, Cohort 4, 0.5 mg/kg IV infusion 2 hours, Median
  half-life: 15.6 h
iv, t1/2, Cohort 4, 0.5 mg/kg IV infusion 2 hours, individual subject
  half-life: 12.6 h
iv, t1/2, Cohort 4, 0.5 mg/kg IV, infusion 2 hours, cohort Geometric Mean
  half-life: 15.7 h
iv, t1/2, Cohort 4, 0.5 mg/kg IV, infusion 2 hours, cohort Mean
  half-life: 16.2 h
iv, t1/2, Cohort 4, 0.5 mg/kg IV, infusion 2 hours, cohort Median
  half-life: 15.6 h
iv, t1/2, Cohort 4, 0.5 mg/kg IV, infusion 2 hours, individual subjects
  half-life: 12.6 h
iv, t1/2, Cohort 5, 1 mg/kg IV infusion 4 hours, Geometric Mean
  half-life: 18.6 h
iv, t1/2, Cohort 5, 1 mg/kg IV infusion 4 hours, Mean
  half-life: 19.9 h
iv, t1/2, Cohort 5, 1 mg/kg IV infusion 4 hours, Median
  half-life: 20.9 h
Mean Tmax, Cohort 1, from the start of infusion
  Tmax: 0.85 h
Mean Tmax, Cohort 5, from the start of infusion
  Tmax: 4.19 h
Cohort 1
  Vd: 25.5 L
Cohort 5
  Vd: 94.2 L
Mean half-life, Cohorts 1 to 3 (0.05 to […], 1-hour infusion), increasing with dose
  half-life: 7.22 to 15.2 h
Mean half-life, Cohorts 3b and 4 (0.25 and 0.5 mg/kg, 2-hour infusion), increasing with dose
  half-life: 13.1 to 16.2 h
Mean terminal half-life, range over dose groups, dose range 0.05 to 0.5 mg/kg (Cohorts 1 to 4)
  half-life: 7.4 to 19.9 h
t1/2, single 1-hour infusion 0.05 mg/kg, Geometric Mean
  half-life: 7.33 h
t1/2, single 1-hour infusion 0.05 mg/kg, Mean
  half-life: 7.36 h
t1/2, single 1-hour infusion 0.05 mg/kg, Median
  half-life: 7.29 h
t1/2, single 1-hour infusion 0.05 mg/kg, individual subjects
  half-life: 6.62 h
